{
  "source": "patent US10662476B2",
  "about": "(priority 2011, dated 2020)",
  "key": {"[1]": {"test": "Blood concentrations of morphine glucuronides by ABCC3 -211C>T genotype", "settings": "for ratio to morphine concentration: heterozygous or homozygous ABCC3 -211C>T versus wild-type; for mean concentration at sampling time 10 to 15 minutes: wild-types (C/C) versus heterozygous and homozygous ABCC3 -211C>T, after single morphine dose"}, "[2]": {"tested_on": "women following cesarean section", "settings": "cited from earlier work"}, "[3]": {"tested_on": "children after tonsillectomy", "test": "Pain intensity before and after codeine (0-100 visual analog scale)", "format": "in vivo, human", "settings": "POD 0-2; 0-100 VAS, 45-60 minutes after dose; SE 2"}, "children following T/TA": {"tested_on": "children following T/TA", "settings": "cited from earlier work"}, "[4]": {"tested_on": "children after tonsillectomy", "test": "Codeine-related adverse drug reactions at home after tonsillectomy (parent diary)", "settings": "with every one point increase in CYP2D6 TAS; POD 0-2"}},
  "note": "Read-outs that look alike come from different tables or passages of the source.",
  "data": [
    {"molecule": "CN1CC[C@]23c4c5ccc(O[C@@H]6O[C@H](C(=O)O)[C@@H](O)[C@H](O)[C@H]6O)c4O[C@H]2[C@@H](O)C=C[C@H]3[C@H]1C5", "note": "[M3G, Morphine-3-glucuronide]", "values": [
      {"measurement": "ratio to morphine concentration", "setting": "[1]", "result": "significantly lower"},
      {"measurement": "mean concentration at sampling time 10 to 15 minutes", "setting": "[1]", "result": "higher"}
    ]},
    {"molecule": "CN1CC[C@]23c4c5ccc(O)c4O[C@H]2[C@@H](O[C@@H]2O[C@H](C(=O)O)[C@@H](O)[C@H](O)[C@H]2O)C=C[C@H]3[C@H]1C5", "note": "[M6G, morphine-6-glucuronide]", "values": [
      {"measurement": "ratio to morphine concentration", "setting": "[1]", "result": "significantly lower"},
      {"measurement": "blood concentration at sampling time 10 to 15 minutes", "setting": "[1]; twelve out of 105 children, all carrying the ABCC3 -211C>T variant, below lower quantitative limit", "result": "< 1", "unit": "ng/mL"},
      {"measurement": "mean concentration at sampling time 10 to 15 minutes", "setting": "[1]", "result": "higher"}
    ]},
    {"molecule": "COc1ccc2c3c1O[C@H]1[C@@H](O)C=C[C@H]4[C@@H](C2)N(C)CC[C@@]341", "note": "[codeine]", "values": [
      {"measurement": "reported analgesia", "setting": "[2]; two patients with CYP2D6 TAS >3, discontinued due to ADRs", "result": "significant pain relief"},
      {"measurement": "reported analgesia", "setting": "[2]; two patients with CYP2D6 TAS=0", "result": "no analgesia"},
      {"measurement": "reduction of pain intensity (average)", "setting": "[3]", "result": 28, "unit": "points"},
      {"measurement": "children withdrawn from study due to intolerable side effects", "setting": "children following T/TA; PRN administration following T/TA", "result": 6.7, "unit": "%"},
      {"measurement": "children withdrawn from study due to intolerable side effects", "setting": "children following T/TA; around-the-clock (ATC) administration following T/TA", "result": 17.4, "unit": "%"},
      {"measurement": "increase of predicted number of ADRs", "setting": "[4]", "result": 0.41}
    ]}
  ]
}
